# Experimental data published in patent publication US10131652B2, “Pyrimidinyloxy benzene derivatives as herbicides” (E. I. DU PONT DE NEMOURS AND COMPANY, priority 2014, dated 2018).
# Read-outs that look alike come from different tables or passages of the source.
# What was measured:
# Assay type in all cases: in vivo
# [1] = system: barnyardgrass (Echinochloa crus-galli); assay: Test B pre-/postemergence plant response; conditions: for pest or weed control at 125 g/ha / pest or weed control at 500 g/ha: Echinochloa crus-galli, 240 h, read-out: Plant response rating, Barnyardgrass
# Method in brief: (§1)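 Visual injury rating, 0 (no effect) to 100 (complete control), vs untreated controls after ~10 d greenhouse. Pre: directed soil spray after planting in loam/sand. Post: plants 2–10 cm, 1–2 leaf stage. Compound in non-phytotoxic solvent plus surfactant.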
# [2] = system: pigweed (Amaranthus retroflexus); assay: Test B pre-/postemergence plant response; conditions: for pest or weed control at 125 g/ha / pest or weed control at 500 g/ha: Amaranthus retroflexus, 240 h, read-out: Plant response rating, Pigweed
# Method in brief: as §1
# corn (Zea mays) = assay: Test B pre-/postemergence plant response; conditions: for Corn plant response rating (crop injury, 0 = no effect, 100 = complete kill) at 125 g/ha / Corn plant response rating (crop injury, 0 = no effect, 100 = complete kill) at 500 g/ha: Zea mays, 240 h
# Method in brief: as §1
# [3] = system: giant foxtail (Setaria faberii); assay: Test B pre-/postemergence plant response; conditions: for pest or weed control at 125 g/ha / pest or weed control at 500 g/ha: Setaria faberi, 240 h, read-out: Plant response rating, Foxtail, Giant
# Method in brief: as §1
# [4] = system: wheat (Triticum aestivum); assay: Test B pre-/postemergence plant response; conditions: for plant injury at 125 g/ha / plant injury at 500 g/ha: Triticum aestivum, 240 h, read-out: Plant response rating, Wheat
# Method in brief: as §1
# [5] = system: morningglory (Ipomoea coccinea); assay: Test D pre-/postemergence plant response; conditions: Postemergence; for Morningglory plant response rating: scale 0 to 100 (0 no effect, 100 complete control); for Plant response rating, Morningglory: scale 0 to 100, 0 no effect, 100 complete control
# Source text: (§2) Seeds of plant species selected from blackgrass (Alopecurus myosuroides), Italian ryegrass (Lolium multiflorum), winter wheat (Triticum aestivum), galium (catchweed bedstraw, Galium aparine), corn (Zea mays), large (Lg) crabgrass (Digitaria sanguinalis), giant foxtail (Setaria faberii), johnsongrass (Sorghum halepense), lambsquarters (Chenopodium album), morningglory (Ipomoea coccinea), yellow nutsedge (Cyperus esculentus), pigweed (Amaranthus retroflexus), ragweed (common ragweed, Ambrosia elatior), soybean (Glycine max), bamyardgrass (Echinochloa crus-galli), oilseed rape (Brassica napus), waterhemp (common waterhemp, Amaranthus rudis), and velvetleaf (Abutilon theophrasti) were planted into a blend of loam soil and sand and treated preemergence with test chemicals formulated in a non-phytotoxic solvent mixture which included a surfactant. At the same time, plants selected from these crop and weed species and also kochia (Kochia scoparia), wild oat (Avena fatua), and chickweed (common chickweed, Stellaria media) were planted in pots containing Redi-Earth® planting medium (Scotts Company, 14111 Scottslawn Road, Marysville, Ohio 43041) comprising spaghnum peat moss, vermiculite, wetting agent and starter nutrients and treated with postemergence applications of test chemicals formulated in the same manner. Plants ranged in height from 2 to 18 cm (1- to 4-leaf stage) for postemergence treatments. Treated plants and controls were maintained in a greenhouse for 13 to 15 days, after which time all species were compared to controls and visually evaluated. Plant response ratings, summarized in Table D, are based on a scale of 0 to 100 where 0 is no effect and 100 is complete control. A dash (-) response means no test result.
# [6] = system: barnyardgrass (Echinochloa crus-galli); assay: Test D pre-/postemergence plant response; conditions: Postemergence; for Barnyardgrass plant response rating: scale 0 to 100 (0 no effect, 100 complete control); for Plant response rating, Barnyardgrass: scale 0 to 100, 0 no effect, 100 complete control
# Source text: as §2
# [7] = system: pigweed (Amaranthus retroflexus); assay: Test D pre-/postemergence plant response; conditions: Postemergence; for Pigweed plant response rating: scale 0 to 100 (0 no effect, 100 complete control); for Plant response rating, Pigweed: scale 0 to 100, 0 no effect, 100 complete control
# Source text: as §2
# [8] = system: ragweed (common ragweed, Ambrosia elatior); assay: Test D pre-/postemergence plant response; conditions: Postemergence; for Ragweed plant response rating: scale 0 to 100 (0 no effect, 100 complete control); for Plant response rating, Ragweed: scale 0 to 100, 0 no effect, 100 complete control
# Source text: as §2
# [9] = system: giant foxtail (Setaria faberii); assay: Test D pre-/postemergence plant response; conditions: Postemergence; for Foxtail, Giant plant response rating: scale 0 to 100 (0 no effect, 100 complete control); for Plant response rating, Foxtail, Giant: scale 0 to 100, 0 no effect, 100 complete control
# Source text: as §2
# [10] = system: blackgrass (Alopecurus myosuroides); assay: Test D pre-/postemergence plant response; conditions: Postemergence; for Blackgrass plant response rating: scale 0 to 100 (0 no effect, 100 complete control); for Plant response rating, Blackgrass: scale 0 to 100, 0 no effect, 100 complete control
# Source text: as §2
# [11] = system: large (Lg) crabgrass (Digitaria sanguinalis); assay: Test D pre-/postemergence plant response; conditions: Postemergence; for Crabgrass, Large plant response rating: scale 0 to 100 (0 no effect, 100 complete control); for Plant response rating, Crabgrass, Large: scale 0 to 100, 0 no effect, 100 complete control
# Source text: as §2
# [12] = system: waterhemp (common waterhemp, Amaranthus rudis); assay: Test D pre-/postemergence plant response; conditions: Postemergence; for Waterhemp plant response rating: scale 0 to 100 (0 no effect, 100 complete control); for Plant response rating, Waterhemp: scale 0 to 100, 0 no effect, 100 complete control
# Source text: as §2
# [13] = system: johnsongrass (Sorghum halepense); assay: Test D pre-/postemergence plant response; conditions: Postemergence; for Johnsongrass plant response rating: scale 0 to 100 (0 no effect, 100 complete control); for Plant response rating, Johnsongrass: scale 0 to 100, 0 no effect, 100 complete control
# Source text: as §2
# soybean (Glycine max) = assay: Test D pre-/postemergence plant response; conditions: Postemergence; for Soybean plant response rating: scale 0 to 100 (0 no effect, 100 complete control); for Plant response rating, Soybean: scale 0 to 100, 0 no effect, 100 complete control
# Source text: as §2
# [14] = post-emergence, 125 g ai/ha, postemergence, 0 to 100 scale, 0 no effect, 100 complete control
# [15] = post-emergence, Postemergence, 500 g ai/ha, 0 to 100 scale (0 no effect, 100 complete control)
# [16] = pre-emergence, Preemergence, 125 g ai/ha, 0 to 100 scale where 0 is no effect and 100 is complete control
# [17] = pre-emergence, Preemergence, 500 g ai/ha, 0 to 100 scale where 0 is no effect and 100 is complete control
# [18] = 125 g ai/ha, postemergence, 0 to 100 scale, 0 no effect, 100 complete control
# [19] = Postemergence, 500 g ai/ha, 0 to 100 scale (0 no effect, 100 complete control)
# [20] = Preemergence, 125 g ai/ha, 0 to 100 scale where 0 is no effect and 100 is complete control
# [21] = Preemergence, 500 g ai/ha, 0 to 100 scale where 0 is no effect and 100 is complete control
structure (smiles),measurement,setting,value
"FC(F)(F)Oc1ccc(-c2ccccc2Oc2ncc(Cl)cn2)cc1 [Compound 42, 5-chloro-2-[[4′-(trifluoromethoxy)[1,1′-biphenyl]-2-yl]oxy]pyrimidine]",pest or weed control at 125 g/ha,[1]; [14],20%
same,pest or weed control at 500 g/ha,[1]; [15],30%
same,pest or weed control at 125 g/ha,[1]; [16],20%
same,pest or weed control at 500 g/ha,[1]; [17],70%
same,pest or weed control at 125 g/ha,[2]; [14],60%
same,pest or weed control at 500 g/ha,[2]; [15],80%
same,pest or weed control at 125 g/ha,[2]; [16],50%
same,pest or weed control at 500 g/ha,[2]; [17],90%
same,"Corn plant response rating (crop injury, 0 = no effect, 100 = complete kill) at 125 g/ha",corn (Zea mays); [14],20%
same,"Corn plant response rating (crop injury, 0 = no effect, 100 = complete kill) at 500 g/ha",corn (Zea mays); [15],20%
same,"Corn plant response rating (crop injury, 0 = no effect, 100 = complete kill) at 125 g/ha",corn (Zea mays); [16],0%
same,"Corn plant response rating (crop injury, 0 = no effect, 100 = complete kill) at 500 g/ha",corn (Zea mays); [17],0%
same,pest or weed control at 125 g/ha,[3]; [14],10%
same,pest or weed control at 500 g/ha,[3]; [15],30%
same,pest or weed control at 125 g/ha,[3]; [16],70%
same,pest or weed control at 500 g/ha,[3]; [17],100%
same,plant injury at 125 g/ha,[4]; [14],0%
same,plant injury at 500 g/ha,[4]; [15],0%
same,plant injury at 125 g/ha,[4]; [16],0%
same,plant injury at 500 g/ha,[4]; [17],0%
Cn1nnc(-c2ccccc2Oc2ncc(Br)cn2)n1 [Compound 50],Morningglory plant response rating,[5]; 16 g ai/ha,0
same,Morningglory plant response rating,[5]; 31 g ai/ha,0
same,"Plant response rating, Morningglory",[5]; 62 g ai/ha,10
same,"Plant response rating, Morningglory",[5]; 125 g ai/ha,20
same,Barnyardgrass plant response rating,[6]; 16 g ai/ha,0
same,Barnyardgrass plant response rating,[6]; 31 g ai/ha,0
same,"Plant response rating, Barnyardgrass",[6]; 62 g ai/ha,0
same,"Plant response rating, Barnyardgrass",[6]; 125 g ai/ha,0
same,Pigweed plant response rating,[7]; 16 g ai/ha,0
same,Pigweed plant response rating,[7]; 31 g ai/ha,5
same,"Plant response rating, Pigweed",[7]; 62 g ai/ha,5
same,"Plant response rating, Pigweed",[7]; 125 g ai/ha,30
same,Ragweed plant response rating,[8]; 16 g ai/ha,5
same,Ragweed plant response rating,[8]; 31 g ai/ha,5
same,"Plant response rating, Ragweed",[8]; 62 g ai/ha,5
same,"Plant response rating, Ragweed",[8]; 125 g ai/ha,15
same,"Foxtail, Giant plant response rating",[9]; 16 g ai/ha,0
same,"Foxtail, Giant plant response rating",[9]; 31 g ai/ha,0
same,"Plant response rating, Foxtail, Giant",[9]; 62 g ai/ha,5
same,"Plant response rating, Foxtail, Giant",[9]; 125 g ai/ha,35
same,Blackgrass plant response rating,[10]; 16 g ai/ha,0
same,Blackgrass plant response rating,[10]; 31 g ai/ha,0
same,"Plant response rating, Blackgrass",[10]; 62 g ai/ha,0
same,"Plant response rating, Blackgrass",[10]; 125 g ai/ha,0
same,"Crabgrass, Large plant response rating",[11]; 16 g ai/ha,0
same,"Crabgrass, Large plant response rating",[11]; 31 g ai/ha,0
same,"Plant response rating, Crabgrass, Large",[11]; 62 g ai/ha,0
same,"Plant response rating, Crabgrass, Large",[11]; 125 g ai/ha,5
same,Waterhemp plant response rating,[12]; 16 g ai/ha,0
same,Waterhemp plant response rating,[12]; 31 g ai/ha,0
same,"Plant response rating, Waterhemp",[12]; 62 g ai/ha,0
same,"Plant response rating, Waterhemp",[12]; 125 g ai/ha,40
same,Johnsongrass plant response rating,[13]; 16 g ai/ha,0
same,Johnsongrass plant response rating,[13]; 31 g ai/ha,0
same,"Plant response rating, Johnsongrass",[13]; 62 g ai/ha,0
same,"Plant response rating, Johnsongrass",[13]; 125 g ai/ha,0
same,Soybean plant response rating,soybean (Glycine max); 16 g ai/ha,5
same,Soybean plant response rating,soybean (Glycine max); 31 g ai/ha,5
same,"Plant response rating, Soybean",soybean (Glycine max); 62 g ai/ha,20
same,"Plant response rating, Soybean",soybean (Glycine max); 125 g ai/ha,40
same,"Plant response rating, Barnyardgrass",[1]; [18],0
same,"Plant response rating, Barnyardgrass",[1]; [19],0
same,"Plant response rating, Barnyardgrass",[1]; [20],0
same,"Plant response rating, Barnyardgrass",[1]; [21],10
same,"Plant response rating, Pigweed",[2]; [18],70
same,"Plant response rating, Pigweed",[2]; [19],100
same,"Plant response rating, Pigweed",[2]; [20],60
same,"Plant response rating, Pigweed",[2]; [21],100
same,"Plant response rating, Corn",corn (Zea mays); [18],0
same,"Plant response rating, Corn",corn (Zea mays); [19],0
same,"Plant response rating, Foxtail, Giant",[3]; [18],0
same,"Plant response rating, Foxtail, Giant",[3]; [19],10
same,"Plant response rating, Foxtail, Giant",[3]; [20],0
same,"Plant response rating, Foxtail, Giant",[3]; [21],50
same,"Plant response rating, Wheat",[4]; [18],0
same,"Plant response rating, Wheat",[4]; [19],20
